Data published in patent publication US20260248702A1, “Composition Comprising a UV-Filter Stabilizer” (Symrise AG, priority 2022, published 2026).

Assay: Photostability test: E1%/cm absorbance measurement before and after irradiation with 5 MED
Type: physicochemical
Conditions: for Photostability result in words / Lost (%) after irradiation with 5 MED (1,250 J/m^2) / E max (nm): E1%/cm solution; for Lost (%) after irradiation with 5 MED (1,250 J/m^2): absorbance loss at E max; for E max (nm): wavelength of maximum absorbance; for loss of the photo-unstable UV-filter (absorbance loss), UV-filter alone versus in combination with the MAA compound: after irradiation with 5 MED, no wavelength given in the sentence; for photo-stabilizing effect in words: summary statements on the photostability test
Protocol: The photostability of a UV-filter can be determined in vitro using absorbance measures, by which the loss in absorbance of the UV-filter before and after irradiation, for example with 5 MED, is measured. The loss in absorbance of the UV-filter goes along with the degradation of the UV-filter by one or more photochemical reactions, including photofragmentation, isomerization, tautomerization, photoaddition and the like. UV-filters with an absorbance loss≥20% after irradiation are classified as photo-unstable. Alternatively, the photostability of a UV-filter can be determined by analytical measures, that is by quantitative determination of the amount (i.e. concentration) by which the filter is degraded.
UV-filters are usually tested for photostability to ensure that no degradation of the UV-filter itself or in combination with other substances takes place.
The UV-filter stabilizing properties of mycosporine-like amino acid compounds were explored by comparing the behaviour of UV-filter alone relative to UV-filters in combination with a certain mycosporine-like amino acid compound.
In the present case single photo-unstable UV-filters as well as formulations of photo-unstable filters with certain mycosporine-like amino acid compounds were subjected to photostability testing, described in detail below, to determine the retention of absorption of UVA and UVB radiation (full spectrum analysis) after exposing the sample to 5 MED (minimal erythema) dose (1 MED=250 J/m^2).
Sample preparation: The substance or the formulation to be tested was dissolved in a suitable solvent. For this purpose, a certain amount of the substance or formulation was transferred by means of an analytical balance/pipette into a graduated flask and filled with the selected solvent. The filling up to the calibration mark of the graduated flask was carried out only after complete dissolution of the substance and temperature control at 20° C.
Preparation of solution E 1%/cm: 100 mg of the substance or formulation to be tested were weighed into a graduated flask and filled up to 100 ml with the corresponding solvent. A clear solution was obtained. If necessary, an ultrasonic bath can be used to improve solubility. For further dilution the sample was adjusted to a temperature of 20° C. 1 ml of the dissolved solution was added into a second graduated 100 ml flask, filled up to 100 ml at a temperature of 20° C. The final concentration of the thus obtained solution was 0.001%. (E1%/cm). This solution was used for absorbance measurement and irradiation. Said solution was transferred to a 10 mm quartz cuvette with closure.
Irradiation: Irradiation of the sample was performed for […] with 700 W/m^2 emitted by an Atlas SUN Test CPS. This corresponds to an amount of energy of 5 MED (minimal erythema) dose (=1,250 J/m^2). At the same time, the temperature of the devise was adjusted to max 30° C. in order to avoid strong heating of the sample.
Measurement: The absorbance measurement of the sample in the quartz cuvette with closure (10 mm) was carried out in a wavelength range of 200 nm to 700 nm with a Lambda 25 UV spectrometer. A blank absorbance test was carried out with the corresponding solvent for preparing the samples as described above. The absorbance measurement of the samples was carried out before (pre-irradiation) and after irradiation emitted by a Atlas SUN Test CPS (see above).
The amplitude of the absorbance curve reflects the degree of protection. The higher the amplitude of the curve, the greater the absorbance and the more protection provided at that wavelength. Within the UVB portion of the spectrum (290 nm to 320 nm) this amplitude correlates with the SPF. The greater the breadth of the curve, the more protection provided against longer wave UV ration. In other words, the greater the breadth of the curve, the broader the spectrum of sun protection provided. […]

[1] = after irradiation with 5 MED (1,250 J/m^2)

## COc1ccc(C(=O)CC(=O)c2ccc(C(C)(C)C)cc2)cc1 [Butyl Methoxydibenzoylmethane, Butyl-Methoxydibenzoylmethane or Avobenzone]
E1%/cm solution (0.001%), after irradiation with 5 MED (1,250 J/m^2), read at 358 nm
  Absorbance loss at 358 nm: 7.05%
[1]
  Photostability result in words: photostable in this kind of medium
  Lost (%) after irradiation with 5 MED (1,250 J/m^2): 7.05%
  E max (nm): 358 nm
  loss of the photo-unstable UV-filter (absorbance loss), UV-filter alone versus in combination with the MAA compound: 7.05%

## CCCCC(CC)COC(=O)C=Cc1ccc(OC)cc1 (stereo not drawn) [Ethylhexyl Methoxycinnamate, Ethylhexyl-Methoxycinnamate]
[1]
  Photostability result in words: Not photostable

## COc1ccc(/C=C/C(=O)OCCC(C)C)cc1 [Isoamyl p-Methoxycinnamate, Isoamyl-p-Methoxycinnamate]
E1%/cm solution (0.001%), after irradiation with 5 MED (1,250 J/m^2), read at 310 nm
  Absorbance loss at 310 nm: 30.5%
[1]
  Photostability result in words: Not photostable
  Lost (%) after irradiation with 5 MED (1,250 J/m^2): 30.50%
  E max (nm): 310 nm
  loss of the photo-unstable UV-filter (absorbance loss), UV-filter alone versus in combination with the MAA compound: 30.50%
Wavelength at which 90% of the total area under the UV protection curve (280-400 nm) is reached
  Critical Wavelength (nm): 324 nm

## CCOC(=O)CNC1=C/C(=N/c2ccccc2)CC(C)(C)C1 [MAA-1, ethyl 2-[[5,5-dimethyl-3-phen-ylimino-cyclohexen-1-yl]amino] acetate]
E1%/cm solution (0.001%), after irradiation with 5 MED (1,250 J/m^2), read at 321 nm
  Absorbance loss at 321 nm: 0.53%
[1]
  Photostability result in words: Very photostable molecule
  photo-stabilizing effect in words: pronounced photo-stabilizing effect

## COc1ccc(/N=C2\CC(C)(C)CC3=C2SCC(C(=O)O)N3)cc1OC (stereo not drawn) [MAA-13, 8-((3,4-dimethoyxphenyl)-imino)-6,6-dimethyl-3,4,5,6,7,8-hexahydro-2-H-benzol[b][1,4]thiazine-3-car-boxylic acid]
E1%/cm solution (0.001%), after irradiation with 5 MED (1,250 J/m^2), read at 364 nm
  Absorbance loss at 364 nm: 5.13%
[1]
  Photostability result in words: Very photostable molecule
  photo-stabilizing effect in words: pronounced photo-stabilizing effect

## CC1(C)CC(NCC(=O)O)=C/C(=N/c2ccccc2)C1 [MAA-20, 2-[(5,5-dimethyl-3-phenyl-imino-cyclohexen-1-yl)-amino]acetic acid]
[1]
  Photostability result in words: Very photostable molecule

## CC1(C)CC(NCC(=O)O)=C/C(=N/c2ccc(S(=O)(=O)O)cc2)C1 [MAA-28, 2-[(5,5-dimethyl-3-(4-sulfo-phenyl)imino-cyclohexen-1-yl)amino]acetic acid]
E1%/cm solution (0.001%), after irradiation with 5 MED (1,250 J/m^2), read at 335 nm
  Absorbance loss at 335 nm: 15.03%
[1]
  Photostability result in words: A photostable molecule
